Columns and labels:
[1] = system: S. epidermidis SK9; assay: MIC and checkerboard (FICI), planktonic cells; type: cell-based; conditions: for MIC: alone, 24 h, 37 °C
Description: (§1) The MIC was determined by the micro broth dilution method in 96-well plates. […] A 10 μL containing 1×10^5 bacterial cells or 2×10^3 fungal cells were added to each well. The inoculated plates were covered with a lid, sealed with Parafilm, and incubated for 24 h at 37 °C with slight rocking on a tilting platform shaker. After incubation, the optical density at 600 nm (OD 600) of the cultures in each well was measured using an xMark™ Microplate Absorbance Spectrophotometer (Bio-Rad). The MIC was defined as the lowest concentration of antimicrobial compound at which the culture OD600 values was similar to uninoculated control wells. MBCs and MFCs were determined by transferring 100 μL from each well with no apparent growth onto appropriate agar plates, followed by incubation for 24 h at 37 °C.
(§2) The concentrations of antimicrobials used were based on previously determined MIC values. […] Microtiter plates were incubated at 37 °C for 24 h, and the results were analyzed. Each test was performed in duplicate and included a growth control without the addition of any antimicrobials.

[2] = system: Candida albicans SK4b; assay: MIC and checkerboard (FICI), planktonic cells; type: cell-based; conditions: for MIC: alone, 24 h, 37 °C
Description: as §1, §2

[3] = system: Staphylococcus epidermidis ON170; assay: MIC and checkerboard (FICI), planktonic cells; type: cell-based; conditions: for MIC: alone, 24 h, 37 °C
Description: as §1, §2

[4] = system: C. albicans ON47; assay: MIC and checkerboard (FICI), planktonic cells; type: cell-based; conditions: for MIC: alone, 24 h, 37 °C
Description: as §1, §2

[5] = system: E. coli SK2; assay: MIC and checkerboard (FICI), planktonic cells; type: cell-based; conditions: for MIC: alone, 24 h, 37 °C
Description: as §1, §2

[6] = system: Pseudomonas aeruginosa SK1; assay: MIC and checkerboard (FICI), planktonic cells; type: cell-based; conditions: for MIC: alone, 24 h, 37 °C
Description: as §1, §2

[7] = system: Stenotrophomonas maltophilia ON17; assay: MIC and checkerboard (FICI), planktonic cells; type: cell-based; conditions: for MIC: alone, 24 h, 37 °C
Description: as §1, §2

[8] = system: Proteus mirabilis ON153; assay: MIC and checkerboard (FICI), planktonic cells; type: cell-based; conditions: for MIC: alone, 24 h, 37 °C
Description: as §1, §2

[9] = system: Staphylococcus aureus ON89; assay: MIC and checkerboard (FICI), planktonic cells; type: cell-based; conditions: for MIC: alone, 24 h, 37 °C
Description: as §1, §2

[10] = system: Serratia marcescens SK2; assay: MIC and checkerboard (FICI), planktonic cells; type: cell-based; conditions: for MIC: alone, 24 h, 37 °C
Description: as §1, §2

[11] = system: Escherichia coli ON29; assay: MIC and checkerboard (FICI), planktonic cells; type: cell-based; conditions: for MIC: alone, 24 h, 37 °C
Description: as §1, §2

[12] = system: bacterial and fungal biofilms; assay: Rapid eradication of 48-h-old biofilms within 2 h exposure; type: cell-based, bacterial and fungal strains; conditions: at the MBEC alone, 48-h-old biofilm
Description: This example comprises performing biofilm growth as described above. After biofilm formation, control pegs (n=6) were removed and analyzed to determine the starting biofilm cell numbers via the drop dilution method. The 48-h old biofilms on the pegs were exposed to different concentrations of test antimicrobials, dissolved in an appropriate growth medium, for 2 hours to evaluate their efficacy alone and in combination. […] Following treatment, pegs were washed twice with sterile PBS, and the biofilm cells were dislodged into recovery medium and enumerated as described above.

[13] = system: MRSA ON184; assay: MBC/MFC and FMCI, planktonic cells; type: cell-based, methicillin-resistant S. aureus; conditions: for MBC/MFC: alone
Description: as §1, §2

[14] = system: MRSA ON184; assay: MIC and checkerboard (FICI), planktonic cells; type: cell-based, methicillin-resistant S. aureus; conditions: for MIC: alone, 24 h, 37 °C
Description: as §1, §2

[15] = system: Candida albicans SK4b; assay: MBC/MFC and FMCI, planktonic cells; type: cell-based; conditions: for MBC/MFC: alone
Description: as §1, with “The MIC was defined as the lowest concentration of antimicrobial compound at which the culture OD600 values was similar to uninoculated control wells.” left out
as §2

[16] = system: C. albicans ON47; assay: MBC/MFC and FMCI, planktonic cells; type: cell-based; conditions: for MBC/MFC: alone
Description: as §1, with “The MIC was defined as the lowest concentration of antimicrobial compound at which the culture OD600 values was similar to uninoculated control wells.” left out
as §2

[17] = system: Pseudomonas aeruginosa SK1; assay: MBC/MFC and FMCI, planktonic cells; type: cell-based; conditions: for MBC/MFC: alone
Description: as §1, with “The MIC was defined as the lowest concentration of antimicrobial compound at which the culture OD600 values was similar to uninoculated control wells.” left out
as §2

[18] = system: Stenotrophomonas maltophilia ON17; assay: MBC/MFC and FMCI, planktonic cells; type: cell-based; conditions: for MBC/MFC: alone
Description: as §1, with “The MIC was defined as the lowest concentration of antimicrobial compound at which the culture OD600 values was similar to uninoculated control wells.” left out
as §2

CCO [ET, ethanol]
MIC in combination ([1]; TE + ET in combination): 0.4%
MIC [1]: 6.25%
MIC in combination ([2]; TE + ET in combination): 1.6%
MIC [2]: 6.25%
MIC in combination ([3]; TE + ET in combination): 0.4%
MIC [3]: 3.125%
MIC in combination ([4]; TE + ET in combination): 0.4%
MIC [4]: 6.25%
MIC in combination ([5]; TE + ET in combination): 6.25%
MIC [5]: 12.5%
MIC in combination ([6]; TE + ET in combination): 3.125%
MIC [6]: 3.125%
MIC in combination ([7]; TE + ET in combination): 0.4%
MIC [7]: 6.25%
MIC in combination ([8]; TE + ET in combination): 1.6%
MIC [8]: 6.25%
MIC in combination ([9]; TE + ET in combination): 0.4%
MIC [9]: 6.25%
MIC in combination ([10]; TE + ET in combination): 3.125%
MIC [10]: 6.25%
MIC in combination ([11]; TE + ET in combination): 3.125%
MIC [11]: 12.5%
biofilm eradication [12]: failed to eradicate the preformed biofilms
MBC/MFC in combination ([13]; TE + ET in combination): 3.125%
MBC/MFC [13]: 25%
MIC in combination ([14]; TE + ET in combination): 0.4%
MIC [14]: 6.25%
MBC/MFC in combination ([15]; TE + ET in combination): 3.125%
MBC/MFC [15]: 6.25%
MBC/MFC in combination ([16]; TE + ET in combination): 3.125%
MBC/MFC [16]: 6.25%
MBC/MFC in combination ([17]; TE + ET in combination): 6.25%
MBC/MFC [17]: 12.5%
MBC/MFC in combination ([18]; TE + ET in combination): 1.6%
MBC/MFC [18]: 6.25%

O=C(O)CN(CCN(CC(=O)O)CC(=O)O)CC(=O)O.[Na].[Na].[Na].[Na] [TE, tetrasodium ethylenediaminetetraacetic acid]
MIC in combination ([1]; TE + CH in combination): 0.015%
MIC in combination ([1]; TE + ET in combination): 0.015%
MIC [1]: 0.063%
MIC in combination ([2]; TE + CH in combination): 0.063%
MIC in combination ([2]; TE + ET in combination): 0.25%
MIC [2]: 1%
MIC in combination ([3]; TE + CH in combination): 0.063%
MIC in combination ([3]; TE + ET in combination): 0.015%
MIC [3]: 0.063%
MIC in combination ([4]; TE + CH in combination): 0.125%
MIC in combination ([4]; TE + ET in combination): 0.25%
MIC [4]: 1%
MIC in combination ([5]; TE + CH in combination): 0.008%
MIC in combination ([5]; TE + ET in combination): 0.015%
MIC [5]: 0.5%
MIC in combination ([6]; TE + CH in combination): 0.5%
MIC in combination ([6]; TE + ET in combination): 0.031%
MIC [6]: 0.25%
MIC in combination ([7]; TE + CH in combination): 0.015%
MIC in combination ([7]; TE + ET in combination): 0.031%
MIC [7]: 0.063%
MIC in combination ([8]; TE + CH in combination): 0.063%
MIC in combination ([8]; TE + ET in combination): 0.5%
MIC [8]: 1%
MIC in combination ([9]; TE + CH in combination): 0.008%
MIC in combination ([9]; TE + ET in combination): 0.015%
MIC [9]: 0.063%
MIC in combination ([10]; TE + CH in combination): 0.063%
MIC in combination ([10]; TE + ET in combination): 0.5%
MIC [10]: 1%
MIC in combination ([11]; TE + CH in combination): 0.008%
MIC in combination ([11]; TE + ET in combination): 0.25%
MIC [11]: 0.5%
biofilm eradication [12]: failed to eradicate the preformed biofilms
MBC/MFC in combination ([13]; TE + CH in combination): 0.125%
MBC/MFC in combination ([13]; TE + ET in combination): 0.031%
MBC/MFC [13]: 2%
MIC in combination ([14]; TE + CH in combination): 0.008%
MIC in combination ([14]; TE + ET in combination): 0.015%
MIC [14]: 0.063%
MBC/MFC in combination ([15]; TE + CH in combination): 0.125%
MBC/MFC in combination ([15]; TE + ET in combination): 0.25%
MBC/MFC [15]: 1%
MBC/MFC in combination ([16]; TE + CH in combination): 0.031%
MBC/MFC in combination ([16]; TE + ET in combination): 0.25%
MBC/MFC [16]: 2%
MBC/MFC in combination ([17]; TE + CH in combination): 0.031%
MBC/MFC in combination ([17]; TE + ET in combination): 0.031%
MBC/MFC [17]: 1%
MBC/MFC in combination ([18]; TE + CH in combination): 0.031%
MBC/MFC in combination ([18]; TE + ET in combination): 0.125%
MBC/MFC [18]: 1%
